Test [1] relates to cumulus-oocyte complexes. Put plainly: Cumulus expansion assay in vitro. Type of test: cell-based, mice. Particulars: competing with PGE2. As for the experimental part:
Folliculogenesis is induced in immature female mice (strain: CD1 (ICR) from Charles River) at an age of 14-18 days by a single dose (intraperitoneally) of 10 I.U. of PMSG (Pregnant Mare Serum Gonadotropin; Sigma G-4877, Batch 68H0909). 47-50 hours after the injection, the ovaries are removed and the cumulus-oocyte complexes are removed. The cumulus complex is not yet expanded at this stage.
The cumulus-oocyte complexes are then incubated with prostaglandin E2 (PGE2) (1 μM), vehicle control (ethanol) or test substances for 20-24 hours. Medium: alpha-MEM medium with 0.1 mM IBMX, pyruvates (0.23 mM), glutamines (2 mM), pen/strep (100 IU/ml pen. and 100 μg/ml strep.) and HSA (8 mg/ml). Cumulus expansion is then established through the division into four stages (according to Vanderhyden et al. Dev Biol. 1990 August; 140(2):307-317).

For test [2], the target named is T1, human prostaglandin E2 (subtype EP2) receptor (Homo sapiens, UniProt P43116).
T1 construct: host or cells: cells in a cell culture plate
T1 sequence (P43116 whole entry): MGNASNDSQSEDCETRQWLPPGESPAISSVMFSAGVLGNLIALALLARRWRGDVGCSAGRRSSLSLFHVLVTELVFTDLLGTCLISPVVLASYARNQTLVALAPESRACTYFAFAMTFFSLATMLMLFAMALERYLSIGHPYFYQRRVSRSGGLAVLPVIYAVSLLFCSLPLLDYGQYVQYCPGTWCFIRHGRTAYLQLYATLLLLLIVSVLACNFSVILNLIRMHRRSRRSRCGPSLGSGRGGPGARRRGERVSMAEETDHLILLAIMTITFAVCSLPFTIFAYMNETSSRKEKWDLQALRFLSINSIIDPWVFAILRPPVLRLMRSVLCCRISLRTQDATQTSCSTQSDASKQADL
Put plainly: cAMP antagonism assay (HTRF cAMP detection, in the presence of PGE2). The format is cell-based. As for the experimental part: (§1) The binding of PGE2 to the EP2 subtype of the human PGE2 receptor induces activation of membrane-associated adenylate cyclases and leads to the formation of cAMP. In the presence of the phosphodiesterase inhibitor IBMX, cAMP which has accumulated due to this stimulation and been released by cell lysis is employed in a competitive detection method. In this assay, the cAMP in the lysate competes with cAMP-XL665 for binding of an Eu cryptate-labeled anti-cAMP antibody.
(§2) The two signals are measured in a suitable measuring instrument with a time lag, i.e. after the background fluorescence has declined.
(§3) The substance solutions (0.75 μl) containing 30% DMSO are introduced into an assay plate and dissolved in 16 μl of a KRSB+IBMX stimulation solution (1× Krebs-Ringer Bicarbonate Buffer; Sigma-Aldrich #K-4002; including 750 μM 3-isobutyl-1-methylxanthine Sigma-Aldrich #I-7018), and then 15 μl thereof are transferred into a media-free cell culture plate which has been washed with KRSB shortly beforehand.
After preincubation at room temperature (RT) for 30 minutes, 5 μl of a 4×PGE2 solution (11 nM) are added, and incubation is carried out in the presence of the agonist at RT for a further 60 min (volume: ˜20 μl) before the reaction is then stopped by adding 5 μl of lysis buffer and incubated at RT for a further 20 min (volume: ˜25 μl). The cell lysate is then transferred into a measuring plate and measured in accordance with the manufacturer's information (cyclic AMP kit Cisbio International #62AMPPEC).

The target of test [3] is T1, human prostaglandin E2 (subtype EP2) receptor. Put plainly: cAMP agonism assay (HTRF cAMP detection). Type of test: cell-based. On the procedure: as §1, §2, §3
After incubation at room temperature (RT; volume: ˜15 μl) for 60 minutes, the reaction is then stopped by adding 5 μl of lysis buffer and incubated at RT for a further 20 min (volume: ˜20 μl). The cell lysate is then transferred into a measuring plate and measured in accordance with the manufacturer's information (cyclic AMP kit Cisbio International #62AMPPEC).

[4] abbreviates: cAMP antagonism assay, EP2 receptor, in presence of PGE2, read-out: Antagonism [IC50.
Setting [5] is: cAMP agonism assay, EP2 receptor, read-out: Agonism [ED50.

Where two headings read alike, the source gives them in different places.

On to `CC(C)Oc1ccc2c(=O)c3cc(C(=O)O)ccc3oc2c1` [AH 6809, reference compound], for which, in test [1] (concentration of 100-200 μM), the “suppression of cumulus expansion” value is “about 20%”.

By IC50 is commonly meant the concentration that inhibits the measured activity by half. With `O=C(NC1CCN(c2ccnc3cc(Cl)ccc23)CC1)c1ccccc1Br` [Example 1, 2-Bromo-N-[1-(7-chloro-quinolin-4-yl)-piperidin-4-yl]-benzamide], the concentration for half-maximal inhibition (IC50) in test [2] (setting [4]) is 600 nM. Moreover, the EC50 in test [3] (setting [5]) is over 19000 nM.

For the compound `O=C(NC1CCN(c2ccnc3cc(Cl)ccc23)CC1)c1ccccc1Cl` [Example 4, 2-Chloro-N-[1-(7-chloro-quinolin-4-yl)-piperidin-4-yl]-benzamide], the IC50 in test [2] (setting [4]) is 1000 nM. In addition, in test [3] (setting [5]), the EC50 is over 19000 nM.

As to `O=C(NC1CCN(c2ccnc3cc(Cl)ccc23)CC1)c1ccccc1I` [Example 10, N-[1-(7-Chloro-quinolin-4-yl)-piperidin-4-yl]-2-iodo-benzamide], the IC50 in test [2] (setting [4]) turned out to be 1300 nM.

For `O=C(NC1CCN(c2ccnc3cc(Cl)ccc23)CC1)c1ccc(F)c(F)c1F` [Example 20, N-[1-(7-Chloro-quinolin-4-yl)-piperidin-4-yl]-2,3,4-trifluoro-benzamide], the IC50 in test [2] (setting [4]) was determined as 1600 nM. In addition, the EC50 in test [3] (setting [5]) is over 19000 nM.

Consider `O=C(NC1CCN(c2ccnc3cc(Cl)ccc23)CC1)c1cccc(Cl)c1Cl` [Example 25, 2,3-Dichloro-N-[1-(7-chloro-quinolin-4-yl)-piperidin-4-yl)-benzamide], for which, in test [2] (antagonism test, read-out: IC50 in the antagonism test), the IC50 turned out to be 200 nM. For the same compound, the “suppression of cumulus expansion” value in test [1] (one tenth of the concentration (of 100-200 μM)) is given as about 50%. The EC50 in test [3] (setting [5]) was over 19000 nM; in test [3] (cellular agonism test, read-out: EC50 in the cellular agonism test) it was over 19000 nM.

With `O=C(NC1CCN(c2ccnc3cc(Cl)ccc23)CC1)c1ccc([N+](=O)[O-])o1` [Example 26, 5-Nitro-furan-2-carboxylic acid [1-(7-chloro-quinolin-4-yl)-piperidin-4-yl]-amide], the IC50 in test [2] (setting [4]) came to 2000 nM. In addition, the EC50 in test [3] (setting [5]) was over 19000 nM.

Consider `O=C(NC1CCN(c2ccnc3cc(C(F)(F)F)ccc23)CC1)c1cccc(Cl)c1Cl` [Example 34, 2,3-Dichloro-N-[1-(7-trifluoromethyl-quinolin-4-yl)-piperidin-4-yl]-benzamide], for which the IC50 in test [2] (setting [4]) was 200 nM. The EC50 in test [3] (setting [5]) is over 19000 nM.

As to `O=C(NC1CCN(c2ccnc3c(Cl)cccc23)CC1)c1cccc(Cl)c1Cl` [Example 35, 2,3-Dichloro-N-[1-(8-chloro-quinolin-4-yl)-piperidin-4-yl]-benzamide], the IC50 in test [2] (setting [4]) was 100 nM. The EC50 in test [3] (setting [5]) is over 19000 nM.

Take `O=C(NC1CCN(c2ccnc3cc(Br)ccc23)CC1)c1cccc(Cl)c1Cl` [Example 36, N-[1-(7-Bromo-quinolin-4-yl)-piperidin-4-yl]-2,3-dichloro-benzamide]: in test [2] (setting [4]), the IC50 is 100 nM. Besides, the EC50 in test [3] (setting [5]) is over 19000 nM.

Consider `O=C(NC1CCN(c2ncnc3cc(Cl)ccc23)CC1)c1cccc(Cl)c1Cl` [Example 37, 2,3-Dichloro-N-[1-(7-chloro-quinazolin-4-yl)-piperidin-4-yl]-benzamide], for which the IC50 in test [2] (setting [4]) was 600 nM. Besides, the EC50 in test [3] (setting [5]) was over 19000 nM.

`N#Cc1ccc2c(N3CCC(NC(=O)c4cccc(Cl)c4Cl)CC3)ccnc2c1` [Example 40, 2,3-Dichloro-N-[1-(7-cyano-quinolin-4-yl)-piperidin-4-yl]-benzamide]: the half-inhibitory concentration (IC50) in test [2] (setting [4]) amounted to 900 nM. In test [3] (setting [5]), the EC50 is over 19000 nM.

The values are drawn from patent publication US20080125463A1, “N-(1-hetarylpiperidin-4-yl)(het)arylamides as EP2 receptor modulators” (priority 2006, published 2008).
